In patent publication US7335674B2, “Benzothiazole-4,7-diones and benzoxazole-4,7-diones with substituents in position 5 or 6 and method for production thereof” (Societe de Conseils de Recherches et d'Applications …, priority 2003, dated 2008):

Tests used:
[1] = test system: DU145 (human prostate cancer cells); test: Antiproliferative activity, WST1 colorimetric test, DU145; type: cell-based; settings: DU-145, treated 96 hours, up to 10 μM, read-out: IC50 on the cell proliferation of the DU-145 lines
Procedure: (§1) iii) Characterization of the Antiproliferative Activity:
(§2) By way of example, the effect of a treatment on two human cell lines Mia-Paca2 and DU145 by the compounds of the examples described previously will be studied. The cell lines DU145 (human prostate cancer cells) and Mia-PaCa2 (human pancreas cancer cells) were acquired from the American Tissue Culture Collection (Rockville, Md., USA). The cells placed in 80 μl of Dulbecco's Modified Eagle's medium (Gibco-Brl, Cergy-Pontoise, France) completed with 10% foetal calf serum inactivated by heating (Gibco-Brl, Cergy-Pontoise, France), 50,000 units/l of penicillin and 50 mg/l of streptomycin (Gibco-Brl, 10378-057, Cergy-Pontoise, France), and 2 mM of glutamine (Gibco-Brl, Cergy-Pontoise, France) were seeded on a 96-well plate on day 0. The cells were treated on day 1 for 96 hours with increasing concentrations of each of the compounds to be tested up to 10 μM. At the end of this period, quantification of cell proliferation is evaluated by a colorimetric test based on the cleavage of the tetrazolium salt WST1 by the mitochondrial dehydrogenases in viable cells leading to the formation of formazan (Boehringer Mannheim, Meylan, France). These tests are carried out in duplicate with 8 determinations per concentration tested. For each compound to be tested, the values included in the linear part of the sigmoid were retained for a linear regression analysis and used to estimate the inhibitory concentration IC50. The products are solubilized in dimethylsulphoxide (DMSO) at 10^−2 M and finally used in culture with 0.1% DMSO.

[2] = test system: Mia-Paca2 (human pancreas cancer cells); test: Antiproliferative activity, WST1 colorimetric test, Mia-PaCa2; type: cell-based; settings: MIA PaCa-2, Mia-Paca2, treated 96 hours, up to 10 μM, read-out: IC50 on the cell proliferation of the Mia-Paca2 lines
Procedure: as §1, §2

| IC50 [1] | melting point | IC50 [2] | SMILES |
| --- | --- | --- | --- |
| ≤ 10 µM | 181 to 182 °C | ≤ 10 µM | CN(C)CCNC1=CC(=O)c2oc(-c3cc(F)ccc3F)nc2C1=O [Example 15, 2-(2,5-difluorophenyl)-5-{[2-(dimethylamino)ethyl]amino}-1,3-benzoxazole-4,7-dione] |
| ≤ 10 µM | 193 to 194 °C | ≤ 10 µM | O=C1C(NCCN2CCCC2)=CC(=O)c2oc(-c3cc(F)c(F)c(F)c3)nc21 [Example 26, 5-[(2-pyrrolidin-1-ylethyl)amino]-2-(3,4,5-trifluorophenyl)-1,3-benzoxazole-4,7-dione] |
| ≤ 10 µM | 181 to 182 °C | ≤ 10 µM | CN(C)CCNC1=CC(=O)c2nc(-c3ccc(Br)cc3)oc2C1=O [Example 31, 2-(4-bromophenyl)-6-{[2-(dimethylamino)ethyl]amino}-1,3-benzoxazole-4,7-dione] |
| ≤ 10 µM | 181 to 182 °C | ≤ 10 µM | COc1ccc(-c2nc3c(o2)C(=O)C(NCCN(C)C)=CC3=O)cc1OC [Example 41, 2-(3,4-dimethoxyphenyl)-6-{[2-(dimethylamino)ethyl]amino}-1,3-benzoxazole-4,7-dione] |
| ≤ 10 µM | 126 to 127 °C | ≤ 10 µM | CCCCc1ccc(-c2nc3c(s2)C(=O)C(NCCN(C)C)=CC3=O)cc1 [Example 11, 2-(4-butylphenyl)-6-{[2-(dimethylamino)ethyl]amino}-1,3-benzothiazole-4,7-dione] |
| ≤ 10 µM | 178 to 179 °C | ≤ 10 µM | CN(C)CCNC1=CC(=O)c2nc(-c3cccc(F)c3F)oc2C1=O [Example 35, 2-(2,3-difluorophenyl)-6-{[2-(dimethylamino)ethyl]amino}-1,3-benzoxazole-4,7-dione] |
| ≤ 10 µM | 153 to 154 °C | ≤ 10 µM | CN(C)CCNC1=CC(=O)c2nc(Cc3cccc4ccccc34)oc2C1=O [Example 44, 6-{[2-(dimethylamino)ethyl]amino}-2-(1-naphthylmethyl)-1,3-benzoxazole-4,7-dione] |
| ≤ 10 µM | 246 to 247 °C | ≤ 10 µM | CN(C)CCNC1=CC(=O)c2nc(-c3ccc(F)cc3)sc2C1=O [Example 8, 6-{[2-(dimethylamino)ethyl]amino}-2-(4-fluorophenyl)-1,3-benzothiazole4,7-dione] |
| ≤ 10 µM | 172 to 173 °C | ≤ 10 µM | CN(C)CCNC1=CC(=O)c2nc(-c3cccc4ccccc34)sc2C1=O [Example 9, 6-{[2-(dimethylamino)ethyl]amino}-2-(1-naphthyl)-1,3-benzothiazole-4,7-dione] |
| ≤ 10 µM | 123 to 124 °C | ≤ 10 µM | O=C1C=C(NCCN2CCCC2)C(=O)c2oc(-c3ccccc3Br)nc21 [Example 45, 2-(2-bromophenyl)-6-[(2-pyrrolidin-1-ylethyl)amino]-1,3-benzoxazole-4,7-dione] |
| ≤ 10 µM | 188 to 189 °C | ≤ 10 µM | CN(C)CCNC1=CC(=O)c2nc(-c3cc(F)c(F)c(F)c3)oc2C1=O [Example 36, 6-{[2-(dimethylamino)ethyl]amino}-2-(3,4,5-trifluorophenyl)-1,3-benzoxazole4,7-dione] |
| ≤ 10 µM | 163 to 164 °C | ≤ 10 µM | O=C1C=C(NCCN2CCCC2)C(=O)c2oc(-c3cc(F)cc(F)c3)nc21 [Example 51, 2-(3,5-difluorophenyl)-6-[(2-pyrrolidin-1-ylethyl)amino]-1,3-benzoxazole-4,7-dione] |
| ≤ 10 µM | 187 to 188 °C | ≤ 10 µM | CN(C)CCNC1=CC(=O)c2oc(-c3cc(F)cc(F)c3)nc2C1=O [Example 19, 2-(3,5-difluorophenyl)-5-{[2-(dimethylamino)ethyl]amino}-1,3-benzoxazole-4,7-dione] |
| ≤ 10 µM | 181 to 182 °C | ≤ 10 µM | CN(C)CCNC1=CC(=O)c2oc(-c3ccc(F)cc3)nc2C1=O [Example 18, 5-{[2-(dimethylamino)ethyl]amino}-2-(4-fluorophenyl)-1,3-benzoxazole-4,7-dione] |
| ≤ 10 µM | 163 to 164 °C | ≤ 10 µM | O=C1C=C(NCCN2CCCC2)C(=O)c2oc(-c3cccc(Br)c3)nc21 [Example 46, 2-(3-bromophenyl)-6-[(2-pyrrolidin-1-ylethyl)amino]-1,3-benzoxazole-4,7-dione] |
| ≤ 10 µM | 170 to 171 °C | ≤ 10 µM | O=C1C=C(NCCN2CCCC2)C(=O)c2oc(-c3ccc(F)cc3)nc21 [Example 50, 2-(4-fluorophenyl)-6-[(2-pyrrolidin-1-ylethyl)amino]-1,3-benzoxazole-4,7-dione] |
| ≤ 10 µM | 174 to 175 °C | ≤ 10 µM | CN(C)CCNC1=CC(=O)c2nc(-c3cccc(Br)c3)oc2C1=O [Example 29, 2-(3-bromophenyl)-6-{[2-(dimethylamino)ethyl]amino}-1,3-benzoxazole4,7-dione] |
| ≤ 10 µM | 182 to 183 °C | ≤ 10 µM | O=C1C(NCCN2CCCC2)=CC(=O)c2oc(-c3cc(F)cc(F)c3)nc21 [Example 25, 2-(3,5-difluorophenyl)-5-[(2-pyrrolidin-1-ylethyl)amino]-1,3-benzoxazole-4,7-dione] |
| ≤ 10 µM | 178 to 179 °C | ≤ 10 µM | CN(C)CCNC1=CC(=O)c2nc(Cc3c(F)cccc3Cl)oc2C1=O [Example 43, 2-(2-chloro-6-fluorobenzyl)-6-{[2-(dimethylamino)ethyl]amino}-1,3-benzoxazole4,7-dione] |
| ≤ 10 µM | 169 to 170 °C | ≤ 10 µM | CN(C)CCNC1=CC(=O)c2nc(-c3ccc(F)cc3)oc2C1=O [Example 33, 6-{[2-(dimethylamino)ethyl]amino}-2-(4-fluorophenyl)-1,3-benzoxazole4,7-dione] |
| ≤ 10 µM | 172 to 173 °C | ≤ 10 µM | CN(C)CCNC1=CC(=O)c2nc(Cc3c(Cl)cccc3Cl)oc2C1=O [Example 42, 2-(2,6-dichlorobenzyl)-6-{[2-(dimethylamino)ethyl]amino}-1,3-benzoxazole4,7-dione] |
| ≤ 10 µM | 178 to 179 °C | ≤ 10 µM | CN(C)CCNC1=CC(=O)c2oc(-c3cccc(F)c3F)nc2C1=O [Example 20, 2-(2,3-difluorophenyl)-5-{[2-(dimethylamino)ethyl]amino}-1,3-benzoxazole-4,7-dione] |
| ≤ 10 µM | 153 to 154 °C | ≤ 10 µM | O=C1C=C(NCCN2CCCC2)C(=O)c2oc(-c3ccc(Br)cc3Cl)nc21 [Example 55, 2-(4-bromo-2-chlorophenyl)-6-[(2-pyrrolidin-1-ylethyl)amino]-1,3-benzoxazole-4,7-dione] |
| ≤ 10 µM | 171 to 172 °C | ≤ 10 µM | O=C1C=C(NCCN2CCCC2)C(=O)c2oc(-c3cc(F)c(F)c(F)c3)nc21 [Example 52, 6-[(2-pyrrolidin-1-ylethyl)amino]-2-(3,4,5-trifluorophenyl)-1,3-benzoxazole4,7-dione] |
| ≤ 10 µM | 153 to 154 °C | ≤ 10 µM | CN(C)CCNC1=CC(=O)c2oc(-c3ccccc3Br)nc2C1=O [Example 16, 2-(2-bromophenyl)-5-{[2-(dimethylamino)ethyl]amino}-1,3-benzoxazole4,7-dione] |
| ≤ 10 µM | 187 to 188 °C | ≤ 10 µM | CN(C)CCNC1=CC(=O)c2oc(-c3cccc(Br)c3)nc2C1=O [Example 17, 2-(3-bromophenyl)-5-{[2-(dimethylamino)ethyl]amino}-1,3-benzoxazole-4,7-dione] |
| ≤ 10 µM | 167 to 168 °C | ≤ 10 µM | CN(C)CCNC1=CC(=O)c2nc(-c3ccc4ccccc4c3)sc2C1=O [Example 13, 6-{[2-(dimethylamino)ethyl]amino}-2-(2-naphthyl)-1,3-benzothiazole-4,7-dione] |
| ≤ 10 µM | 135 to 136 °C | ≤ 10 µM | CN(C)CCNC1=CC(=O)c2oc(Cc3ccccc3)nc2C1=O [Example 23, 2-benzyl-5-{[2-(dimethylamino)ethyl]amino}-1,3-benzoxazole-4,7-dione] |
| ≤ 10 µM | 169 to 170 °C | ≤ 10 µM | O=C1C(NCCN2CCCC2)=CC(=O)c2oc(-c3cccc(Br)c3)nc21 [Example 24, 2-(3-bromophenyl)-5-[(2-pyrrolidin-1-ylethyl)amino]1,3-benzoxazole4,7-dione] |
